# Source: patent US7994189B2, “Dihydropyridine derivatives” (N.V. Organon, priority 2005, dated 2011)
# Biological target: T1, human FSH receptor (Homo sapiens, UniProt P23945)
# T1 construct: expressed in transfected cells; host or cells: Chinese Hamster Ovary (CHO) cells
# T1 sequence (P23945 18-695): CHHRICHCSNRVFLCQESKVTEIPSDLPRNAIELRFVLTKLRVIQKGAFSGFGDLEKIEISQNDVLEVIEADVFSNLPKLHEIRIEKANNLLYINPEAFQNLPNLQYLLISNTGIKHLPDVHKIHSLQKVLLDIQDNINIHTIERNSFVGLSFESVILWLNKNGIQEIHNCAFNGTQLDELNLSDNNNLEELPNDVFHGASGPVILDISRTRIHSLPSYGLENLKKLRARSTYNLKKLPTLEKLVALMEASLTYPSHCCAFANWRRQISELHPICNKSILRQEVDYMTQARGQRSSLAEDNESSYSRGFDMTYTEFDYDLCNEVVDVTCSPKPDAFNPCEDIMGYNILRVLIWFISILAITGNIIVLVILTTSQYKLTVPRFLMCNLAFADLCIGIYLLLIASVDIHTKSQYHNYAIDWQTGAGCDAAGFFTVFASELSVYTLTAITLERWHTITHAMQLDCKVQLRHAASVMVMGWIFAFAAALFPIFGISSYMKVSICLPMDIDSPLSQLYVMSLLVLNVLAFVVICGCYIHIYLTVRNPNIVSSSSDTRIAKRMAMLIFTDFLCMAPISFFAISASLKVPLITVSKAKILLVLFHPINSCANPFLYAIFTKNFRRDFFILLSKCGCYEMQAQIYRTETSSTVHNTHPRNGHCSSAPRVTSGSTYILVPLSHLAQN
# Experiment: CHO-FSH in vitro bioactivity (CRE/luciferase reporter gene)
# Format: cell-based
# Conditions: CHO cells stably transfected with the human FSH receptor and CRE/firefly luciferase reporter; luminescence; read-out: EC50 (concentration of test compound causing half-maximal (50%) stimulation)
# Protocol: CHO-FSH In Vitro Bioactivity
# FSH activity of compounds were tested in Chinese Hamster Ovary (CHO) cells stably transfected with the human FSH receptor and cotransfected with a cAMP responsive element (CRE)/promotor directing the expression of a firefly luciferase reporter gene. Binding of ligand to the Gs-coupled FSH receptor will result in an increase of cAMP, which in turn will induce an increased transactivation of the luciferase reporter construct. The luciferase signal was quantified using a luminescence counter. For test compounds, EC50 values (concentration of test compound causing half-maximal (50%) stimulation) were calculated. For that purpose the software program GraphPad PRISM, version 3.0 (GraphPad software Inc., San Diego) was used.
row,Compound,EC50 [nM]
1,"CCCC1CC(=O)C2=C(C1)NC(C)=C(C#N)C2c1cc(Br)c(OCc2cccc(C(=O)NCC(=O)OC)c2)c(OCC)c1 (centres unmarked) [Example 24, Glycine N-3-[2-bromo-4-(3-cyano-2-methyl-5-oxo-7-propyl-1,4,5,6,7,8-hexahydroquinolin-4-yl)-6-ethoxyphenoxymethyl]benzoyl methyl ester]",< 1
2,"CCCC1CC(=O)C2=C(C1)NC(C)=C(C#N)C2c1cc(Br)c(OCc2ccc(C(=O)NCc3cccs3)cc2)c(OCC)c1 (centres unmarked) [Example 29, 4-[2-Bromo-4-(3-cyano-2-methyl-5-oxo-7-propyl-1,4,5,6,7,8-hexahydroquinolin-4-yl)-6-ethoxyphenoxymethyl]-N-thiophen-2-ylmethylbenzamide]",< 1
